From PubChem BioAssay AID1963851 (Molecular Pharmacology Branch, DTP, NCI, 2024)

System: 188146-221-R-J1-PDC complex spheroid viability
Assay: Anticancer human tumor 188146-221-R-J1-PDC patient-derived colon adenocarcinoma cell line growth inhibition [POLQ]
Details: for IC50: curve of first compound; for viability, T/C: stronger effect = lower value
Procedure: Multicellular complex tumor spheroid response to Polymerase (POL) inhibitors (novobiocin, ART-558, RP6685) in combination with a variety of drugs and investigational agents in selected tumor cell lines
The POL inhibitors (novobiocin, ART-558, and RP6685) were evaluated both individually and in combination with standard of care and investigational anticancer small molecules within a complex spheroid model of solid tumors. . Complex spheroids include a stromal component modeled by human endothelial cells (HUVEC) and fibroblasts modeled by human mesenchymal stem cells (MSCs). The concentration ranges selected for each drug and investigational agent were based upon clinically achievable concentrations if the clinical Cmax of the agent was known.
Compounds. The drugs and investigational agents: novobiocin (NSC847541), ART-558 (NSC835418), RP-6685 (NSC848927), peposertib (NSC802822), ceralasertib (NSC780249), elimusertib (NSC800525), camonsertib (NSC841442), AZD-1390 (NSC803789), olaparib (NSC753686), talazoparib (NSC767125), rucaparib (NSC756644), sotorasib (NSC818433), MRTX-1133 (NSC836407), SN-38 (NSC673596), topotecan (NSC609699), epotoside (NSC141540), doxorubicin (NSC123127), gemcitabine (NSC613327), 5-fluorouracil (NSC19893), paclitaxel (NSC125973), vemurafenib (NSC761431), MSA-2 (NSC828583), SN-011 (NSC837082), adavosertib (NSC754352), prexasertib (NSC758257), carboplatin (NSC241240) and oxaliplatin (NSC266046), were obtained from the National Cancer Institute (NCI) Developmental Therapeutics Program Chemical Repository (21). The FDA-approved anticancer drug set is available from the Developmental Therapeutics Program at https://dtp.cancer.gov/organization/dscb/obtaining/. […] The stock solutions were prepared in dimethyl sulfoxide (DMSO, Sigma-Aldrich, St. Louis, MO, cat. D2650), except for the platinum compounds which were prepared in saline (Quality Biological, Gaithersburg, MD, cat. 114-055-101), at 800-fold the tested concentration and stored at -70 degrees C prior to their use. All drugs and investigational agents were tested over a range starting from a high concentration at or near the clinical Cmax and decreasing in half-log increments. If the clinical Cmax for an agent had not been determined, the highest concentration tested was 10 microM, except for SN-38, which was tested at a high concentration of 1 microM.
Cell Culture. All cells were maintained in an incubator at 37 degrees C and 5% CO2 with 95% humidity. The PDC lines were cultured according to standard operating procedures established by the NCI PDMR (https://pdmr.cancer.gov). Table 3 of the manuscript, lists the cell lines along with the number of the three cell types plated to form the mct-spheroids and media for tumor cell growth. After thawing, all PDC lines, except 997537-175-T-J1-PDC and 415267-285-R-J2-PDC, were cultured in Matrigel-coated flasks prepared with a working solution of 1X Ham's F-12 nutrient mix, without supplementation (Thermo Fisher Scientific, cat. 11765054), 100 U/mL penicillin-streptomycin (Thermo Fisher Scientific, cat. 15140122), and 2.5% Matrigel (Corning Inc., Corning, NY, cat. 354248) for the first three passages. The two PDC lines 997537-175-T-J1-PDC and 415267-285-R-J2-PDC were cultured on uncoated flasks. The 857933-349-R-J2-PDC line was cultured in 6C/Colon 1B media containing advanced DMEM/F-12 (Thermo Fisher Scientific, cat. 12634028), 10 mM HEPES (Thermo Fisher Scientific, cat. 15630080), 1X GlutaMAX supplement (Thermo Fisher Scientific, cat. 35050061), 0.1 mg/mL primocin (InvivoGen, San Diego, CA, cat. ant-pm-2), 10% defined fetal bovine serum, heat inactivated (HyClone Laboratories Inc., Logan, UT, cat. SH30070.03HI), 50% L-WRN conditioned media (ATCC, cat. CRL-3276), 1.25 mM N-Acetyl-L-cysteine (Sigma-Aldrich, cat. A9165), 10 mM nicotinamide (Sigma-Aldrich, cat. N0636), 1X B-27 supplement (Thermo Fisher Scientific, cat. 17504044), 1X N-2 supplement (Thermo Fisher Scientific, cat. […]

[1] = second compound 0.0316 µM, first compound 0.00316 µM
[2] = second compound 0.0316 µM, first compound 0.01 µM
[3] = second compound 0.0316 µM, first compound 0.0316 µM
[4] = second compound 0.0316 µM, first compound 0.1 µM
[5] = second compound 0.0316 µM, first compound 0.316 µM
[6] = second compound 0.0316 µM, first compound 1 µM
[7] = second compound 0.1 µM, first compound 0.00316 µM
[8] = second compound 0.1 µM, first compound 0.01 µM
[9] = second compound 0.1 µM, first compound 0.0316 µM
[10] = second compound 0.1 µM, first compound 0.1 µM
[11] = second compound 0.1 µM, first compound 0.316 µM
[12] = second compound 0.1 µM, first compound 1 µM
[13] = second compound 0.316 µM, first compound 0.00316 µM
[14] = second compound 0.316 µM, first compound 0.01 µM
[15] = second compound 0.316 µM, first compound 0.0316 µM
[16] = second compound 0.316 µM, first compound 0.1 µM
[17] = second compound 0.316 µM, first compound 0.316 µM
[18] = second compound 0.316 µM, first compound 1 µM
[19] = second compound 1 µM, first compound 0.00316 µM
[20] = second compound 1 µM, first compound 0.01 µM
[21] = second compound 1 µM, first compound 0.0316 µM
[22] = second compound 1 µM, first compound 0.1 µM
[23] = second compound 1 µM, first compound 0.316 µM
[24] = second compound 1 µM, first compound 1 µM
[25] = second compound 3.16 µM, first compound 0.00316 µM
[26] = second compound 3.16 µM, first compound 0.01 µM
[27] = second compound 3.16 µM, first compound 0.0316 µM
[28] = second compound 3.16 µM, first compound 0.1 µM
[29] = second compound 3.16 µM, first compound 0.316 µM
[30] = second compound 3.16 µM, first compound 1 µM
[31] = second compound 10 µM, first compound 0.00316 µM
[32] = second compound 10 µM, first compound 0.01 µM
[33] = second compound 10 µM, first compound 0.0316 µM
[34] = second compound 10 µM, first compound 0.1 µM
[35] = second compound 10 µM, first compound 0.316 µM
[36] = second compound 10 µM, first compound 1 µM
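Note: spheroids exposed to compounds for seven days.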
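Throughout, for viability, T/C: 100% = DMSO vehicle control viability.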

C=CCn1c(=O)c2cnc(Nc3ccc(N4CCN(C)CC4)cc3)nc2n1-c1cccc(C(C)(C)O)n1 + Cc1cccc(N(C)C(=O)C2C(O)CCN2c2nc(C)cc(C(F)(F)F)c2C#N)c1
IC50 (second compound 0.0316 µM): > 1000 nM | IC50 (second compound 0.1 µM): > 1000 nM | IC50 (second compound 0.316 µM): > 1000 nM | IC50 (second compound 1 µM): > 1000 nM | IC50 (second compound 3.16 µM): > 1000 nM | IC50 (second compound 10 µM): 754 nM | viability, T/C [1]: 109% | viability, T/C [2]: 113% | viability, T/C [3]: 104% | viability, T/C [4]: 105% | viability, T/C [5]: 103% | viability, T/C [6]: 60.9% | viability, T/C [7]: 112% | viability, T/C [8]: 109% | viability, T/C [9]: 119% | viability, T/C [10]: 114% | viability, T/C [11]: 115% | viability, T/C [12]: 51.5% | viability, T/C [13]: 92.3% | viability, T/C [14]: 88.7% | viability, T/C [15]: 105% | viability, T/C [16]: 107% | viability, T/C [17]: 110% | viability, T/C [18]: 59.5% | viability, T/C [19]: 109% | viability, T/C [20]: 98.5% | viability, T/C [21]: 105% | viability, T/C [22]: 99% | viability, T/C [23]: 112% | viability, T/C [24]: 57.8% | viability, T/C [25]: 90.6% | viability, T/C [26]: 101% | viability, T/C [27]: 114% | viability, T/C [28]: 102% | viability, T/C [29]: 89.7% | viability, T/C [30]: 56.9% | viability, T/C [31]: 90.7% | viability, T/C [32]: 92.2% | viability, T/C [33]: 104% | viability, T/C [34]: 90.4% | viability, T/C [35]: 97% | viability, T/C [36]: 35.4%

CC1COCCN1c1cc(-c2ccnn2C)c2ccnc(-c3ccn[nH]3)c2n1 (stereo unspecified) + Cc1cccc(N(C)C(=O)C2C(O)CCN2c2nc(C)cc(C(F)(F)F)c2C#N)c1
IC50 (second compound 0.0316 µM): 203 nM | IC50 (second compound 0.1 µM): 228 nM | IC50 (second compound 0.316 µM): 248 nM | IC50 (second compound 1 µM): 336 nM | IC50 (second compound 3.16 µM): 232 nM | IC50 (second compound 10 µM): 165 nM | viability, T/C [3]: 86.4% | viability, T/C [4]: 63.6% | viability, T/C [5]: 43.3% | viability, T/C [6]: 21.8% | viability, T/C (second compound 0.0316 µM, first compound 3.16 µM): 21.6% | viability, T/C (second compound 0.0316 µM, first compound 10 µM): 17.8% | viability, T/C [9]: 87.6% | viability, T/C [10]: 72.7% | viability, T/C [11]: 39.3% | viability, T/C [12]: 26.5% | viability, T/C (second compound 0.1 µM, first compound 3.16 µM): 17% | viability, T/C (second compound 0.1 µM, first compound 10 µM): 15.7% | viability, T/C [15]: 92.9% | viability, T/C [16]: 79.8% | viability, T/C [17]: 40% | viability, T/C [18]: 26.5% | viability, T/C (second compound 0.316 µM, first compound 3.16 µM): 18.8% | viability, T/C (second compound 0.316 µM, first compound 10 µM): 13.8% | viability, T/C [21]: 75.8% | viability, T/C [22]: 73.9% | viability, T/C [23]: 50.3% | viability, T/C [24]: 26.4% | viability, T/C (second compound 1 µM, first compound 3.16 µM): 17.5% | viability, T/C (second compound 1 µM, first compound 10 µM): 15.8% | viability, T/C [27]: 74.9% | viability, T/C [28]: 67.6% | viability, T/C [29]: 44% | viability, T/C [30]: 20% | viability, T/C (second compound 3.16 µM, first compound 3.16 µM): 23.3% | viability, T/C (second compound 3.16 µM, first compound 10 µM): 16.6% | viability, T/C [33]: 67.9% | viability, T/C [34]: 51.5% | viability, T/C [35]: 47.8% | viability, T/C [36]: 25.1% | viability, T/C (second compound 10 µM, first compound 3.16 µM): 21.3% | viability, T/C (second compound 10 µM, first compound 10 µM): 20.2%

COc1cccc(OCCCN)c1-c1cc(Nc2cnc(C#N)cn2)n[nH]1 + Cc1cccc(N(C)C(=O)C2C(O)CCN2c2nc(C)cc(C(F)(F)F)c2C#N)c1
IC50 (second compound 0.0316 µM): 55.5 nM | IC50 (second compound 0.1 µM): 60.9 nM | IC50 (second compound 0.316 µM): 51.5 nM | IC50 (second compound 1 µM): 41.2 nM | IC50 (second compound 3.16 µM): 47.3 nM | IC50 (second compound 10 µM): 22.2 nM | viability, T/C [1]: 100% | viability, T/C [2]: 103% | viability, T/C [3]: 61.5% | viability, T/C [4]: 36.1% | viability, T/C [5]: 18.5% | viability, T/C [6]: 12.1% | viability, T/C [7]: 99.9% | viability, T/C [8]: 90% | viability, T/C [9]: 75.8% | viability, T/C [10]: 30.7% | viability, T/C [11]: 15.9% | viability, T/C [12]: 14.2% | viability, T/C [13]: 105% | viability, T/C [14]: 89.7% | viability, T/C [15]: 66% | viability, T/C [16]: 29.6% | viability, T/C [17]: 17.4% | viability, T/C [18]: 13.6% | viability, T/C [19]: 113% | viability, T/C [20]: 104% | viability, T/C [21]: 54.4% | viability, T/C [22]: 29% | viability, T/C [23]: 17.1% | viability, T/C [24]: 12.6% | viability, T/C [25]: 91.7% | viability, T/C [26]: 82.1% | viability, T/C [27]: 62.8% | viability, T/C [28]: 27.7% | viability, T/C [29]: 15.6% | viability, T/C [30]: 14% | viability, T/C [31]: 96% | viability, T/C [32]: 75.3% | viability, T/C [33]: 37.3% | viability, T/C [34]: 24.4% | viability, T/C [35]: 16.9% | viability, T/C [36]: 14.6%
